The source of these data is patent US20080221253A1, “Lipophilic Properties of 2-Acrylamido-2-Methylpropanesulfonic Acid” (THE LUBRIZOL CORPORATION, priority 2004, published 2008).

The nature of series [1]: Solubility of monomers, mixing 10% of the monomer with a variety of solvents. The format is physicochemical. The note with it: 10% by weight in solvent.
For series [2] the following is noted: octanol/water partition, P=Coctanol/Cwater; cited from earlier work.

For the molecule `C=CC(=O)NC(C)(C)CS(=O)(=O)O` [Example 7, 2-acrylamido-2-methylpropanesulfonic acid], in series [1], the “Solubility in Butyl Acetate” value is “insoluble”, the “Solubility in Ethanol” value is “insoluble”, the “Solubility in Ethyl Acetate” value is listed as “insoluble” and the “Solubility in Isopropanol” value is reported as “not fully soluble”. Also, in series [1], the “Solubility in Styrene” value is recorded as “insoluble”, the “Solubility in Toluene” value is “insoluble” and the “Solubility in Water” value is reported as “clear”.
For `C=CC(=O)NC(C)(C)CS(=O)(=O)O.CCCCCCCCCCCCN(C)C` [Example 8, 2-acrylamido-2-methylpropanesulfonic acid/N,N-dimethyl-n-dodecylamine salt], in series [1], the “Solubility in Butyl Acetate” value is on record as “clear”, the “Solubility in Ethanol” value was “clear”, the “Solubility in Ethyl Acetate” value is listed as “clear” and the “Solubility in Isopropanol” value is recorded as “clear”. In series [1], the “Solubility in Styrene” value is “clear”, the “Solubility in Toluene” value is “clear” and the “Solubility in Water” value was “clear”.
Turning to `C=CC(=O)NC(C)(C)CS(=O)(=O)O.CCCCC(CC)CN` [Example 9, 2-acrylamido-2-methylpropanesulfonic acid/2-ethylhexylamine salt], in series [1], the “Solubility in Butyl Acetate” value is “trace oil”, the “Solubility in Ethanol” value is “clear”, the “Solubility in Ethyl Acetate” value is “clear” and the “Solubility in Isopropanol” value is reported as “clear”. For the same molecule, the “Solubility in Water” value in series [1] is recorded as “clear”.
For `C=CC(=O)O` [acrylic acid], the “log P” value in series [2] is “about 0.4”.
Turning to `CCc1ccccc1` [ethylbenzene], in series [2], the “log P” value is on record as “about 3.1”.
